Experimental data published in US8653087B2, “Pyrido [5, 4-D] pyrimidines as cell proliferation inhibitors” (Boehringer Ingelheim International GmbH, priority 2008, dated 2014).

Molecular target: B-Raf (V600E)-kinase (Homo sapiens (Human), UniProt P15056, V600E)
Experiment: Kinase test B-RAF (V600E)
Type: biochemical
Settings: B-RAF (V600E) kinase test, 250 μM ATP
Outline: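 B-Raf (V600E) (0.5 ng) preincubated with compound 24 h at RT (5% DMSO), then reacted 60 min at RT with 250 μM ATP and biotinylated MEK1 as substrate. Phospho-MEK (Ser217/221) captured on streptavidin and detected by europium time-resolved fluorescence; IC50 from dose-response curves.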

Sequence of B-Raf (V600E)-kinase (P15056 whole entry V600E): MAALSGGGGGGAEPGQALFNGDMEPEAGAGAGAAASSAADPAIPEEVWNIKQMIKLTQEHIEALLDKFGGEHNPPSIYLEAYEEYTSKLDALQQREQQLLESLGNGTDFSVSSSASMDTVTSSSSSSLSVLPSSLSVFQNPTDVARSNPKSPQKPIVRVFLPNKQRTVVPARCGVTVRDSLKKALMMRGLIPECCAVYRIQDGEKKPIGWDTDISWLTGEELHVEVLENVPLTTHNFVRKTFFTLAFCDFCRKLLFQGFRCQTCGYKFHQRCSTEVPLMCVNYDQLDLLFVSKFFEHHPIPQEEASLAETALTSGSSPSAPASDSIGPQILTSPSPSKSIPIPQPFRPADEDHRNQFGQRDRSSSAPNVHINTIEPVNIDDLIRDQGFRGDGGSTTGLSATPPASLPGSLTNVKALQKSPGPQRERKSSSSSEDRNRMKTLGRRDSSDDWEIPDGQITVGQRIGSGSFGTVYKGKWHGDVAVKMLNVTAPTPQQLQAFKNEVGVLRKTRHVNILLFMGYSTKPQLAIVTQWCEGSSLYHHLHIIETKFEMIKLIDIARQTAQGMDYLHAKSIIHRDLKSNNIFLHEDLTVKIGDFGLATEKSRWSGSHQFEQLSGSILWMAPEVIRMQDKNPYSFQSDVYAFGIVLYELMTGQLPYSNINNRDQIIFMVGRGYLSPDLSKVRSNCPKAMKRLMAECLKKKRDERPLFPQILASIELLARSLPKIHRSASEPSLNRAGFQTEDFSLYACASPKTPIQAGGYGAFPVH

IC50 | SMILES
3 nM | COc1ncc2ncnc(Nc3cc(C(=O)Nc4cc(C(C)(C)C)n[nH]4)ccc3C)c2n1 [III-575]
2 nM | COc1ncc2ncnc(Nc3cc(C(=O)Nc4cc(C(C)(C)C)on4)ccc3C)c2n1 [III-577]
28 nM | Cc1ccc(C(=O)Nc2cc(C(C)(C)C)on2)cc1N(C)c1ncnc2cnc(N3CCOCC3)nc12 [III-580]
33 nM | Cc1ccc(C(=O)Nc2cc(C(C)(C)C)on2)cc1N(C)c1ncnc2cnc(NC3CCOC3)nc12 (centres unmarked) [III-581]
74 nM | COCCN1CCN(c2ncc3ncnc(N(C)c4cc(C(=O)Nc5cc(C(C)(C)C)on5)ccc4C)c3n2)CC1 [III-582]
32 nM | Cc1ccc(C(=O)Nc2cc(C(C)(C)C)on2)cc1N(C)c1ncnc2cnc(N3CC[C@H](F)C3)nc12 [III-583]
18 nM | COc1ccc(NC(=O)c2ccc(C)c(N(C)c3ncnc4cnc(N5CCOCC5)nc34)c2)cc1C(F)(F)F [III-584]
27 nM | COc1ccc(NC(=O)c2ccc(C)c(N(C)c3ncnc4cnc(NC5CCOC5)nc34)c2)cc1C(F)(F)F (centres unmarked) [III-585]
193 nM | COCCN1CCN(c2ncc3ncnc(N(C)c4cc(C(=O)Nc5ccc(OC)c(C(F)(F)F)c5)ccc4C)c3n2)CC1 [III-586]
65 nM | COc1ccc(NC(=O)c2ccc(C)c(N(C)c3ncnc4cnc(N5CC[C@H](F)C5)nc34)c2)cc1C(F)(F)F [III-587]
1 nM | Cc1ccc(C(=O)Nc2cc(C(C)(C)C)nn2C)cc1Oc1ncnc2cnc(N3CCOCC3)nc12 [III-591]
< 1 nM | Cc1ccc(C(=O)Nc2cc(C(C)(C)C)on2)cc1Nc1ncnc2cnc(NC3CC(N4CCN(C)CC4)C3)nc12 (centres unmarked) [III-592]
1 nM | COc1ccc(NC(=O)c2ccc(C)c(Nc3ncnc4cnc(NC5CC(N6CCN(C)CC6)C5)nc34)c2)cc1C(F)(F)F (centres unmarked) [III-593]
1 nM | COCCN1CCC(Nc2ncc3ncnc(Nc4cc(C(=O)Nc5cc(C(C)(C)C)on5)ccc4C)c3n2)CC1 [III-594]
1 nM | Cc1ccc(C(=O)Nc2ccnc(C(C)(C)C)c2)cc1Nc1ncnc2cnc(NC3CCN(C)CC3)nc12 [III-595]
2 nM | Cc1ccc(C(=O)Nc2cc(C(C)(C)C)on2)cc1Nc1ncnc2cnc(N(C)C3CC(N4CCN(C)CC4)C3)nc12 (centres unmarked) [III-596]
5 nM | Cc1ccc(C(=O)Nc2ccnc(C(C)(C)C)c2)cc1Nc1ncnc2cnc(N(C)C3CC(N4CCN(C)CC4)C3)nc12 (centres unmarked) [III-597]
< 1 nM | Cc1ccc(C(=O)Nc2cc(C(C)(C)C)on2)cc1Nc1ncnc2cnc(NCCCN(C)C)nc12 [III-598]
1 nM | COc1ccc(NC(=O)c2ccc(C)c(Nc3ncnc4cnc(N5CCC(CN(C)C)CC5)nc34)c2)cc1C(F)(F)F [III-599]
3 nM | Cc1ccc(C(=O)Nc2cc(C(C)(C)C)n[nH]2)cc1Nc1ncnc2cnc(N3CCC(CN4CCCC4)CC3)nc12 [III-600]
6 nM | CC1=Nc2ccc(NC(=O)c3ccc(C)c(Nc4ncnc5cnc(N6CCC(CN7CCCC7)CC6)nc45)c3)cc2C1(C)C [III-601]
9 nM | Cc1ccc(C(=O)Nc2cc(C(C)(C)C)n[nH]2)cc1Nc1ncnc2cnc(N3CCN(CC4CCOC4)CC3)nc12 (centres unmarked) [III-602]
1 nM | Cc1ccc(C(=O)Nc2cc(C(C)(C)C)on2)cc1Nc1ncnc2cnc(N3CCC4(CCN(C)C4)C3)nc12 (centres unmarked) [III-603]
3 nM | Cc1ccc(C(=O)Nc2ccnc(C(C)(C)C)c2)cc1Nc1ncnc2cnc(N3CCC(CN4CCCC4)CC3)nc12 [III-604]
6 nM | Cc1cn(-c2ncc3ncnc(Nc4cc(C(=O)Nc5cc(C(C)(C)C)n[nH]5)ccc4C)c3n2)cn1 [III-605]

IC50 | SMILES
3 nM | Cc1ccc(C(=O)Nc2ccnc(C(C)(C)C)c2)cc1Nc1ncnc2cnc(N3CCC(CCN(C)C)CC3)nc12 [III-606]
1 nM | Cc1ccc(C(=O)Nc2ccc3c(c2)OC(F)(F)C(F)(F)O3)cc1Nc1ncnc2cnc(N3CCN(CCN(C)C)CC3)nc12 [III-607]
7 nM | COCCN1CCN(c2ncc3ncnc(Nc4cc(C(=O)Nc5ccc6c(c5)OC(F)(F)OC6(F)F)ccc4C)c3n2)CC1 [III-608]
< 1 nM | Cc1ccc(NC(=O)c2cccc(C(C)(C)C#N)c2)cc1Nc1ncnc2cnc(N3CCOCC3)nc12 [IV-2]
12 nM | Cc1ccc(NC(=O)c2cccc(C(F)(F)F)c2)cc1Nc1ncnc2cnc(N3CCN(C)CC3)nc12 [IV-3]
44 nM | Cc1ccc(NC(=O)c2cc(C(C)(C)C)n[nH]2)cc1Nc1ncnc2cnc(N3CCN(C)CC3)nc12 [IV-4]
129 nM | Cc1ccc(NC(=O)c2cc(C(C)(C)C)on2)cc1Nc1ncnc2cnc(N3CCN(C)CC3)nc12 [IV-5]
1 nM | Cc1ccc(NC(=O)c2cccc(C(C)(C)C#N)c2)cc1Nc1ncnc2cnc(N3CCN(C)CC3)nc12 [IV-7]
221 nM | Cc1ccc(NC(=O)c2cc(C(C)(C)C)nn2C)cc1Nc1ncnc2cnc(N3CCN(C)CC3)nc12 [IV-10]
1 nM | Cc1ccc(NC(=O)c2cccc(C(C)(C)C#N)c2)cc1Nc1ncnc2cnc(N(C)C)nc12 [IV-12]
3 nM | Cc1ccc(NC(=O)c2cc(N3CCN(C)CC3)cc(C(F)(F)F)c2)cc1Nc1ncnc2cnc(N(C)C)nc12 [IV-13]
3 nM | COc1ccc(C(=O)Nc2ccc(C)c(Nc3ncnc4cnc(N(C)C)nc34)c2)cc1C(F)(F)F [IV-15]
9 nM | Cc1ccc(NC(=O)c2cc(N3CCN(C)CC3)cc(C(F)(F)F)c2)cc1Nc1ncnc2cnc(N(C)CCN(C)C)nc12 [IV-18]
2 nM | Cc1ccc(NC(=O)c2cccc(C(C)(C)C#N)c2)cc1Nc1ncnc2cnc(N(C)CCCN(C)C)nc12 [IV-22]
4 nM | Cc1ccc(NC(=O)c2cc(N3CCN(C)CC3)cc(C(F)(F)F)c2)cc1Nc1ncnc2cnc(N(C)CCCN(C)C)nc12 [IV-23]
72 nM | Cc1ccc(NC(=O)c2cc(C(C)(C)C)nn2C)cc1Nc1ncnc2cnc(N(C)CCCN(C)C)nc12 [IV-24]
2 nM | Cc1ccc(NC(=O)c2cccc(C(C)(C)C#N)c2)cc1Nc1ncnc2cnc(N3CCN(C4CC4)CC3)nc12 [IV-26]
1 nM | CCN1CCN(c2ncc3ncnc(Nc4cc(NC(=O)c5cccc(C(C)(C)C#N)c5)ccc4C)c3n2)CC1 [IV-27]
1 nM | Cc1ccc(NC(=O)c2cccc(C(C)(C)C#N)c2)cc1Nc1ncnc2cnc(NC3CCN(C)CC3)nc12 [IV-28]
1 nM | Cc1ccc(NC(=O)c2cccc(C(C)(C)C#N)c2)cc1Nc1ncnc2cnc(N(C)C3CCN(C)CC3)nc12 [IV-29]
< 1 nM | Cc1ccc(NC(=O)c2cccc(C(C)(C)C#N)c2)cc1Nc1ncnc2cnc(NC3CCOC3)nc12 (centres unmarked) [IV-30]
5 nM | Cc1ccc(NC(=O)c2cccc(C(C)(C)C#N)c2)cc1Nc1ncnc2cnc(N(C)C3CCOCC3)nc12 [IV-31]
1 nM | Cc1ccc(NC(=O)c2cccc(C(C)(C)C#N)c2)cc1Nc1ncnc2cnc(NC3CCOC3)nc12 (centres unmarked) [IV-32]
2 nM | Cc1ccc(NC(=O)c2cccc(C(C)(C)C#N)c2)cc1Nc1ncnc2cnc(N3CCC(F)(F)C3)nc12 [IV-33]
2 nM | Cc1ccc(NC(=O)c2cccc(C(C)(C)C#N)c2)cc1Nc1ncnc2cnc(N3CC[C@@H](F)C3)nc12 [IV-34]

IC50 | SMILES
2 nM | Cc1ccc(NC(=O)c2cccc(C(C)(C)C#N)c2)cc1Nc1ncnc2cnc(N3CC[C@H](F)C3)nc12 [IV-35]
4 nM | CC(=O)N1CCN(c2ncc3ncnc(Nc4cc(NC(=O)c5cccc(C(C)(C)C#N)c5)ccc4C)c3n2)CC1 [IV-36]
1 nM | Cc1ccc(NC(=O)c2cccc(C(C)(C)C#N)c2)cc1Nc1ncnc2cnc(N(C)C3CCOC3)nc12 (centres unmarked) [IV-37]
2 nM | Cc1ccc(NC(=O)c2cccc(C(C)(C)C#N)c2)cc1Nc1ncnc2cnc(NC3CCOCC3)nc12 [IV-38]
4 nM | Cc1ccc(NC(=O)c2cccc(C(C)(C)C#N)c2)cc1Nc1ncnc2cnc(N(C)CC3CCOCC3)nc12 [IV-39]
2 nM | COc1ncc2ncnc(Nc3cc(NC(=O)c4cccc(C(C)(C)C#N)c4)ccc3C)c2n1 [IV-40]
13 nM | COc1ncc2ncnc(Nc3cc(NC(=O)c4ccc(OC)c(C(F)(F)F)c4)ccc3C)c2n1 [IV-42]
3 nM | COc1ncc2ncnc(Nc3cc(NC(=O)c4cc(N5CCN(C)CC5)cc(C(F)(F)F)c4)ccc3C)c2n1 [IV-46]
59 nM | COc1ncc2ncnc(Nc3cc(NC(=O)c4ccc(Cl)c(C(F)(F)F)c4)ccc3C)c2n1 [IV-50]
10000 nM | Cc1ccc(NS(=O)(=O)CC(F)(F)F)cc1Nc1ncnc2cnc(N3CCN(C)CC3)nc12 [IV-53]
10000 nM | Cc1ccc(NS(=O)(=O)CCC(C)C)cc1Nc1ncnc2cnc(N3CCN(C)CC3)nc12 [IV-54]
10000 nM | Cc1ccc(NS(=O)(=O)C2CCCCC2)cc1Nc1ncnc2cnc(N3CCN(C)CC3)nc12 [IV-55]
10000 nM | CCC(C)S(=O)(=O)Nc1ccc(C)c(Nc2ncnc3cnc(N4CCN(C)CC4)nc23)c1 (centres unmarked) [IV-56]
10000 nM | Cc1ccc(NS(=O)(=O)CC(C)C)cc1Nc1ncnc2cnc(N3CCN(C)CC3)nc12 [IV-57]
49 nM | Cc1ccc(NS(=O)(=O)C(C)C)cc1Nc1ncnc2cnc(N3CCN(C)CC3)nc12 [IV-58]
2000 nM | Cc1ccc(NS(=O)(=O)CCC(F)(F)F)cc1Nc1ncnc2cnc(N3CCN(C)CC3)nc12 [IV-59]
2000 nM | Cc1ccc(NS(=O)(=O)CC2CC2)cc1Nc1ncnc2cnc(N3CCN(C)CC3)nc12 [IV-60]
10000 nM | Cc1ccc(NS(=O)(=O)c2cccc(C(F)(F)F)c2)cc1Nc1ncnc2cnc(N3CCN(C)CC3)nc12 [IV-61]
2000 nM | Cc1ccc(NS(=O)(=O)CC2CCCO2)cc1Nc1ncnc2cnc(N3CCN(C)CC3)nc12 (centres unmarked) [IV-62]
595 nM | Cc1ccc(NS(=O)(=O)C2CC2)cc1Nc1ncnc2cnc(N3CCN(C)CC3)nc12 [IV-63]
521 nM | CCS(=O)(=O)Nc1ccc(C)c(Nc2ncnc3cnc(N4CCN(C)CC4)nc23)c1 [IV-64]
2000 nM | CCCS(=O)(=O)Nc1ccc(C)c(Nc2ncnc3cnc(N4CCN(C)CC4)nc23)c1 [IV-65]
10000 nM | Cc1ccc(NS(C)(=O)=O)cc1Nc1ncnc2cnc(N3CCN(C)CC3)nc12 [IV-66]
2 nM | CCN1CCN(c2cc(C(=O)Nc3ccc(C)c(Nc4ncnc5cnc(N6CCOCC6)nc45)c3)cc(C(C)(C)C#N)c2)CC1 [IV-67]
